One block for each molecule: values may come before it.
What was measured:
[1] = Metabolic stability in mouse liver microsome; details: liver microsomes
Experimental: (§1) Blank incubation plates T60 and NCF60 were preheated for 10 min; liver microsome was diluted to 0.56 mg/mL in 100 mM phosphate buffer, 445 μL of the microsome working solution (0.56 mg/mL) was transferred to the preheated “incubation” plates T60 and NCF60, and then the incubation plates T60 and NCF60 were pre-incubated with continuous shaking at 37° C. for 10 min. 54 μL of the liver microsome was transferred to a blank plate, then 6 μL of a NAPDH cofactor was added to the blank plate, and then 180 μL of a quenching solution was added to the blank plate; 5 µL of a composite working solution (100 μM) was added to each of the microsome-containing incubation plates (T60 and NCF60), and the mixture was thoroughly mixed 3 times; 50 μL of a buffer was added to the NCF60 plate, and the mixture was thoroughly mixed 3 times. Timing was started; the plates were incubated with shaking at 37° C. for 60 min; and 180 μL of a quenching solution and 6 μL of the NAPDH cofactor were added to a quenching plate TO. The plates were ensured to be cooled to prevent evaporation. For the T60 plate, the mixture was thoroughly mixed 3 times, and 54 μL of the mixture was immediately transferred to the quenching plate at the time point of 0 min. Then, 44 μL of the NAPDH cofactor was added to the incubation plate (T60). Timing was started; and the plate was incubated with shaking at 37° C. for 60 min. At 5, 15, 30, 45, and 60 min, 180 μL of the quenching solution was added to the quenching plate, mixed once, and then 60 μL of sample was continuously transferred from the plate T60 to the quenching plate at each time point.
(§2) For NCF60, the mixture was mixed once, and at the time point of 60 min, 60 μL of sample was transferred from the NCF60 incubator to the quenching solution-containing quenching plate. All sampling plates were shaken for 10 min, then centrifuged at 4,000 rpm at 4° C. for 20 min. 80 µL of the supernatant was transferred to 240 μL of HPLC water, and mixed using a plate shaker for 10 min.

[2] = system: secretion levels of IL-6 in PBMC cells; experiment: Inhibition of LPS+IL-1β-induced IL-6 secretion in PBMC (IL-6 ELISA); format: cell-based; details: human PBMC, 24 h compound pre-incubation, 20 h stimulation
Experimental: This experiment was carried out in RPMI 1640 medium containing 10% FBS/1% penicillin/streptomycin, with each of the compounds at an initial test concentration of 1 μM. The compound DMSO was dissolved to form a stock solution, which was gradiently diluted 5-fold with the culture medium to a 4× working solution concentration. The diluted solution was added to a 96-well plate with 50 μL per well. PBMC (batch No.: HPP20062307, Sichuan Hope Bio-tech Co., Ltd.) cells were counted, and diluted to a concentration of 2×10^6/mL. The diluted cells were added to the above compound-containing 96-well plate with 150 μL per well, fully mixed, and incubated in an incubator with 5% CO2 at 37° C. for 24 h. Then, LPS and […] were further added to final concentrations of 10 ng/mL and 20 ng/mL, respectively, and the cells were further incubated in the incubator with 5% CO2 at 37° C. for 20 h. Then, after centrifugation at 2,000 rpm for 4 min, the supernatant was diluted 110×, and detected using an IL-6 ELISA kit. An OD450 value was read, and converted to an IL-6 concentration based on a standard curve, to calculate an IC50 value by fitting a dose-effect curve using GraphPad 5.0.

[3] = Metabolic stability in human liver microsome; details: liver microsomes
Experimental: as §1, §2

[4] = system: secretion levels of IL-6 in PBMC cells; experiment: Inhibition of R848-induced IL-6 secretion in PBMC (IL-6 ELISA); format: cell-based; details: human PBMC, 20 h compound pre-incubation, 24 h stimulation
Experimental: This experiment was carried out in RPMI 1640 medium containing 10% FBS/1% penicillin/streptomycin, with each of the compounds at an initial test concentration of 1 μM. The compound DMSO was dissolved to form a stock solution, which was gradiently diluted 4-fold with the culture medium to a 4× working solution concentration. The diluted solution was added to a 96-well plate with 50 μL per well. PBMC (batch No.: HPP20062307, Sichuan Hope Bio-tech Co., Ltd.) cells were counted, and diluted to a concentration of 2×10^6/mL. The diluted cells were added to the above compound-containing 96-well plate with 150 μL per well, fully mixed, and incubated in an incubator with 5% CO2 at 37° C. for 20 h. Then, R848 was further added until a final concentration of […], and the cells were further incubated in the incubator with 5% CO2 at 37° C. for additional 24 h. Then, after centrifugation at 2,000 rpm for 4 min, the supernatant was diluted 110×, and detected using an IL-6 ELISA kit. An OD450 value was read, and converted to an IL-6 concentration based on a standard curve, to calculate an IC50 value by fitting a dose-effect curve using GraphPad 5.0.

IRAK4 protein = target: T1, IRAK4 protein (Homo sapiens, UniProt Q9NWZ3); experiment: IRAK4 protein degradation in THP1 cells (Western blot); format: cell-based; details: 24 h
T1 construct: Effects of Compounds on IRAK4 Protein Degradation in THP1 Cells; endogenous in cells; host or cells: THP-1 cells
T1 sequence (Q9NWZ3 1-460): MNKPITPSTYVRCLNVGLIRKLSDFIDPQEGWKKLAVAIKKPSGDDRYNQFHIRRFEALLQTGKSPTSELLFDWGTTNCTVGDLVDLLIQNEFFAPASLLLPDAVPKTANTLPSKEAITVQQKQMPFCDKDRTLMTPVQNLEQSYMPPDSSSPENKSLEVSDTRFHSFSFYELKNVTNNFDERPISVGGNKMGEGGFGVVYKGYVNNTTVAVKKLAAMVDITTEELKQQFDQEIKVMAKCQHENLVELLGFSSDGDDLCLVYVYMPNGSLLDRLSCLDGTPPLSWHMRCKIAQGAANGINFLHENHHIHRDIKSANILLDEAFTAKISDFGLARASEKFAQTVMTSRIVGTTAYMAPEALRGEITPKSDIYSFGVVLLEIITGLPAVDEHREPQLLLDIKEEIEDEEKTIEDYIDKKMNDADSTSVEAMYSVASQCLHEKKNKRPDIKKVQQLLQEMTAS
Experimental: THP-1 cells were inoculated into a 96-well cell culture plate, with 5×10^4 cells and 100 μL of a culture medium per well. The cell culture plate was cultured in an incubator with 5% CO2 at 37° C. overnight. 100 nl of a well-prepared compound stock solution and a compound-free DMSO stock solution were respectively added to cells per well. The cell culture plate was incubated in an incubator with 5% CO2 at 37° C. for 24 h. One protease inhibitor tablet and one phosphatase inhibitor tablet were added to 20 mL of a cell lysis buffer, and they were gently mixed until complete dissolution. DTT at a final concentration of 200 mM was added to a 4× sample preparation buffer to prepare a 4× sample preparation working solution. 20× electrophoretic buffer was diluted to 1× with ultrapure water. 20× transfer buffer was diluted to 1× with ultrapure water, and 20% methanol was added. […] IRAK4 protein primary antibody working solution: 20 μl of IRAK4 antibody added to 20 mL of a blocking solution; β-Actin primary antibody working solution: 2 μl of beta-actin (13E5) Rabbit mAb antibody added to 20 mL of a blocking solution. IRAK4 protein secondary antibody working solution: Donkey Anti-Goat IgG H&L (HRP) diluted 1/5,000 in a blocking solution; 3-Actin secondary antibody working solution: Anti-rabbit IgG, RP-linked antibody diluted 1/10,000 in a blocking solution. The cell culture plate was centrifuged at 3,000 rpm for 3 min, and most of the culture medium was carefully pipetted. The cell plate was inverted, and centrifuged at 300 rpm for 30 s. 45 μL of a lysis buffer was added to each well. The mixture was shaken at 300 rpm for 30 s, allowed to stand on ice for 30 min, and pipetted 30 times at 20 min. 6 μL of 4× sample preparation working solution was added to 18 μL of protein supernatant for sample preparation, and the mixture was heated at 70° C. for 10 min. Remaining protein samples were stored at −80° C. In the precast gel, 8 μl of sample was loaded into each well for electrophoresis at a constant voltage of 120 V for about 60 min, transferred using a PVDF membrane at a constant current of 300 mA for 1 h, then blocked with a blocking solution at room temperature for 1 h, and incubated in a primary antibody working solution at 4° C. overnight. The membrane was washed with 1×TBST buffer for 3×10 min. The secondary antibody working solution was incubated at room temperature for 1 h. The membrane was washed with 1×TBST buffer for 3×10 min, and a chromogenic solution was used for exposure and color development.

[5] = Pharmacokinetic experiment on SD rats (iv and ig); format: in vivo; details: Sprague-Dawley, rat, plasma; for Cmax: read-out: Peak plasma concentration Cmax; for bioavailability: ig 5.00 mg/kg vs iv 1.00 mg/kg, read-out: Oral bioavailability Fobs (%)
Experimental: Pharmacokinetic experiment on SD rats: in this experiment, two administration modes: oral intragastric administration and tail vein injection were selected. Each of the compounds of the present patented invention was administered at an oral dose of 5 mg/kg at an administration volume of 10 mL/kg. […] Appropriate amounts of Solutol and H2O were proportionally added sequentially, and fully mixed ultrasonically by vortexing, to prepare a clear drug solution at 0.5 mg/mL. ICL004-protodrug was administered by intravenous injection at a dose of 1 mg/kg at an administration volume of 10 mL/kg. Right before use, an appropriate amount of the drug was accurately weighed, to prepare a final volume of 20% PEG 400 and 80% Saline. Appropriate amounts of PEG 400 and Saline were proportionally added sequentially, and fully mixed ultrasonically by vortexing, to prepare a clear drug solution at 0.1 mg/mL.
6 SD rats, each with body weight of 180-220 g, were randomly grouped into 2 groups. After fasting but with free access to water overnight, each […] in the first group was administered by gavage. 200 μL of blood was sampled from its eye socket into an anticoagulant tube respectively at each time point of 15 min, 30 min, 1 h, 2 h, 4 h, 6 h, 8 h, and 24 h after administration. Within one h, each of the blood samples was centrifuged at 10,000 rpm at 4° C. for 20 min (the sample was stored on an ice box prior to the centrifugation), and the supernatant (i.e., the plasma) was stored in a refrigerator at −20° C. for LC-MS/MS analysis. 200 μL of blood was sampled from the eye socket of each […] in the second group into an anticoagulant tube respectively at each time point of 5 min, 15 min, 30 min, 1 h, 2 h, 4 h, 8 h, and 24 h after administration by intravenous injection. Within one h, each of the blood samples was centrifuged at 10,000 rpm at 4° C. for 20 min (the blood sample was stored on an ice box prior to the centrifugation), and the supernatant, i.e., the plasma, was stored in a refrigerator at −20° C. for LC-MS/MS analysis.

[6] = Pharmacokinetic experiment on mice (iv and ig); format: in vivo; details: mouse, plasma; for bioavailability: ig 5.00 mg/kg vs iv 1.00 mg/kg, read-out: Oral bioavailability Fobs (%); for Cmax: read-out: Peak plasma concentration Cmax
[7] = po, BALB/c Mice, ig, 5.00 mg/kg

Structure (SMILES): Cn1c(=O)n(C2CCC(=O)NC2=O)c2cccc(C#CCOC3CCN(C[C@H]4CC[C@H](n5cc(NC(=O)c6cnn7ccc(N8C[C@H]9C[C@@H]8CO9)nc67)c(C(F)F)n5)CC4)CC3)c21 (stereo partly drawn) [Positive compound, reference compound]
- half-life at 1 µM [1]: 29.4 min
- IC50 [2]: 38.4 nM
- half-life at 1 µM [3]: 39.4 min
- IC50 [4]: 38.5 nM

- DC50 (IRAK4 protein): 4.81 nM
Structure (SMILES): Cc1nn(C2CCC(=O)NC2=O)c2cccc(N3CC4CN(C[C@H]5CC[C@H](n6cc7cc(NC(=O)c8cnn9cccnc89)c(N8CCO[C@H](C)C8)cc7n6)CC5)CC4C3)c12 (stereo partly drawn) [TM-55]
- IC50 [2]: 7.63 nM
- IC50 [4]: 5.09 nM

- half-life at 1 µM [1]: 70.1 min
- half-life at 1 µM [3]: 80.8 min
- AUC ([5]; iv, 1.00 mg/kg): 1900 ng·h/mL
- AUC(0-inf) ([5]; iv, 1.00 mg/kg): 1980 ng·h/mL
- Cmax ([5]; iv, 1.00 mg/kg): 477 ng/mL
- bioavailability ([5]; po): 10.7%
- AUC ([5]; po, ig, 5.00 mg/kg): 1060 ng·h/mL
- AUC(0-inf) ([5]; po, ig, 5.00 mg/kg): 1120 ng·h/mL
- Cmax ([5]; po, ig, 5.00 mg/kg): 96 ng/mL
- bioavailability ([6]; po, ICR Mice): 91.9%
- AUC ([6]; po, ICR Mice, ig, 5.00 mg/kg): 2510 ng·h/mL
- AUC(0-inf) ([6]; po, ICR Mice, ig, 5.00 mg/kg): 2820 ng·h/mL
- Cmax ([6]; po, ICR Mice, ig, 5.00 mg/kg): 220 ng/mL
- AUC ([6]; ICR Mice, iv, 1.00 mg/kg): 524 ng·h/mL
- AUC(0-inf) ([6]; ICR Mice, iv, 1.00 mg/kg): 613 ng·h/mL
- Cmax ([6]; ICR Mice, iv, 1.00 mg/kg): 81 ng/mL
Structure (SMILES): Cc1nn(C2CCC(=O)NC2=O)c2cccc(OC3CCN(C[C@H]4CC[C@H](n5cc6cc(NC(=O)c7cnn8cccnc78)c(N7CCOCC7)cc6n5)CC4)CC3)c12 (stereo partly drawn) [TM-56]
- IC50 [2]: 5.49 nM

- DC50 (IRAK4 protein): 0.57 nM
Structure (SMILES): Cc1nn(C2CCC(=O)NC2=O)c2cccc(N3CCC(CN4CCC(N5Cc6cc(NC(=O)c7cnn8cccnc78)c(N(C)C)cc6C5=O)CC4)CC3)c12 (stereo not drawn) [TM-66]
- IC50 [2]: 19.4 nM
- IC50 [4]: 262 nM

- DC50 (IRAK4 protein): 0.58 nM
Structure (SMILES): Cc1nn(C2CCC(=O)NC2=O)c2cccc(N3CCCN(C[C@H]4CC[C@H](n5cc6cc(NC(=O)c7cnn8cccnc78)c(N(C)C)cc6n5)CC4)CC3)c12 (stereo partly drawn) [TM-96]
- IC50 [2]: 7.18 nM

- DC50 (IRAK4 protein): < 0.1 nM
- AUC ([5]; iv, 1.00 mg/kg): 625 ng·h/mL
- AUC(0-inf) ([5]; iv, 1.00 mg/kg): 674 ng·h/mL
- Cmax ([5]; iv, 1.00 mg/kg): 151 ng/mL
- bioavailability ([5]; po): 11.1%
- AUC ([5]; po, ig, 5.00 mg/kg): 374 ng·h/mL
- AUC(0-inf) ([5]; po, ig, 5.00 mg/kg): 435 ng·h/mL
- Cmax ([5]; po, ig, 5.00 mg/kg): 23 ng/mL
- bioavailability ([6]; po, BALB/c Mice): 20.1%
- AUC [6, 7]: 3370 ng·h/mL
- AUC(0-inf) [6, 7]: 3550 ng·h/mL
- Cmax [6, 7]: 356 ng/mL
- AUC ([6]; BALB/c Mice, iv, 1.00 mg/kg): 3390 ng·h/mL
- AUC(0-inf) ([6]; BALB/c Mice, iv, 1.00 mg/kg): 3520 ng·h/mL
- Cmax ([6]; BALB/c Mice, iv, 1.00 mg/kg): 580 ng/mL
Structure (SMILES): Cc1nn(C2CCC(=O)NC2=O)c2cccc(N3CCC4(CC3)CN(C[C@H]3CC[C@H](n5cc6cc(NC(=O)c7cnn8cccnc78)c(N(C)C)cc6n5)CC3)C4)c12 (stereo partly drawn) [TM-101]
- IC50 [2]: 1.17 nM

- DC50 (IRAK4 protein): 0.9 nM
Structure (SMILES): Cc1nn(C2CCC(=O)NC2=O)c2cccc(N3CC4CN(C[C@H]5CC[C@H](n6cc7cc(NC(=O)c8cnn9cccnc89)c(N(C)C)cc7n6)CC5)CC4C3)c12 (stereo partly drawn) [TM-102]
- IC50 [2]: 5.94 nM

- DC50 (IRAK4 protein): 0.044 nM
Structure (SMILES): Cc1nn(C2CCC(=O)NC2=O)c2cncc(N3CCC(CN4CCC(n5cc6cc(NC(=O)c7cnn8cccnc78)c(N(C)C)cc6n5)CC4)CC3)c12 (stereo not drawn) [TM-106]
- IC50 [2]: 54.9 nM

- DC50 (IRAK4 protein): 1.06 nM
Structure (SMILES): Cc1nn(C2CCC(=O)NC2=O)c2ccnc(N3CCC4(CC3)CN(C[C@H]3CC[C@H](n5cc6cc(NC(=O)c7cnn8cccnc78)c(N(C)C)cc6n5)CC3)C4)c12 (stereo partly drawn) [TM-113]
- IC50 [2]: 0.62 nM
